{"source": "paper PMC4847728", "about": "(ACS chemical biology, 2015)", "key": {"[1]": {"test_system": "in vitro protein synthesis (E. coli S30 Extract System)", "assay": "In vitro transcription-translation coupled assay", "assay_type": "biochemical", "conditions": "read-out: IC50, in vitro translation inhibition, pBESTLuc template, 37 °C, 1 h, triplicate"}, "[2]": {"test_system": "Enterococcus faecium ATCC 12952 (VRE)", "assay": "MIC, liquid microdilution, VRE", "assay_type": "cell-based", "conditions": "18 h, 37 °C"}, "Bacillus sp. ATCC 27859": {"test_system": "Bacillus sp. ATCC 27859", "assay": "MIC, liquid microdilution, Bacillus", "assay_type": "cell-based", "conditions": "18 h, 37 °C"}, "[3]": {"test_system": "Staphylococcus aureus ATCC 10537 (MRSA)", "assay": "MIC, liquid microdilution, MRSA", "assay_type": "cell-based", "conditions": "18 h, 37 °C"}}}
{"smiles": "C=C(NC(=O)C(=C)NC(=O)c1csc(C2=N[C@@H]3c4csc(n4)[C@H]4NC(=O)c5csc(n5)[C@H]([C@](C)(O)[C@@H](C)O)NC(=O)[C@H]5CSC(=N5)/C(=C/C)NC(=O)[C@H]([C@@H](C)O)NC(=O)c5csc(n5)[C@]3(CC2)NC(=O)[C@H](C)NC(=O)C(=C)NC(=O)[C@H](C)NC(=O)[C@H]([C@@H](C)CC)N[C@@H]2C=Cc3c([C@H](C)O)cc(nc3[C@H]2O)C(=O)O[C@@H]4C)n1)C(N)=O", "note": "[Thiostrepton A, thiostrepton A]", "values": [{"measurement": "IC50", "setting": "[1]", "result": "630 ± 10", "unit": "nM"}, {"measurement": "MIC VRE", "setting": "[2]", "result": 0.012, "unit": "µg/mL"}, {"measurement": "MIC Bacillus", "setting": "Bacillus sp. ATCC 27859", "result": 0.025, "unit": "µg/mL"}, {"measurement": "MIC MRSA", "setting": "[3]", "result": 0.012, "unit": "µg/mL"}]}
